From US7078437B2, “Apolipoprotein D degradation inhibitor” (Kao Corporation, priority 2003, dated 2006)

System: apolipoprotein D
Test: Inhibitory effect against degradation of apolipoprotein D (human sweat concentrate treated with Brevibacterium epiderumidis cells, western blot)
Assay type: biochemical
Conditions: human sweat concentrate as apolipoprotein-D-containing sample; Brevibacterium epiderumidis cells as protease, about 10^8 cfu/mL; 37° C. for 24 hours; antibody-staining after SDS-PAGE
Method: Inhibitory effects of lauric acid and oleic acid on degradation of apolipoprotein D were studied using a human sweat concentrate as an apolipoprotein-D-containing sample and Brevibacterium epiderumidis cells as a protease.
(1) Preparation of Sweat Samples
The absorbent cotton balls were squeezed, whereby a solution (57.5 mL) was collected. The collected solution was filtered through a 0.45-μm filter and then concentrated by use of a MILLIPOR Centriprep YM-10.
Distilled water was added again to the concentrate, and the resultant solution was concentrated in a similar manner by use of a Centriprep YM-10, to thereby remove substances of low molecular weight. The product was employed as a sweat concentrate.
(2) 100 mM Tris-HCl buffer (0.03 mL), distilled water (0.02 mL), and each of lauric acid (Sigma) and oleic acid (Sigma) were added to an aliquot (0.04 mL) of the sweat concentrate prepared through the above method (1). […] Briefly, the cell-treated sweat concentrate was subjected to SDS polyacrylamide electrophoresis (SDS-PAGE) by use of a Ready Gel J (15% of separation gel concentration, Bio-Rad Laboratories, Inc.), and the thus-separated proteins were electrically transcribed from the gel onto a PVDF filter (Millipore Corporation, Immobilon transfer membrane). […]

SMILES: CCCCCCCC/C=C\CCCCCCCC(=O)O [oleic acid]
- degradation of apolipoprotein D (percent residue of apolipoprotein D): degradation of apolipoprotein D was suppressed

SMILES: CCCCCCCCCCCC(=O)O [lauric acid]
- degradation of apolipoprotein D (percent residue of apolipoprotein D): degradation of apolipoprotein D was suppressed
